Like-named read-outs stand apart in the source and are kept apart here.
Target: T1, human B-Raf (Homo sapiens, UniProt P15056)
T1 construct: Flag; GST; made in house; host or cells: Sf9 insect cells (B-Raf); E. coli (MEK1-GST)
Experiment: B-Raf Kinase to MEK1 ELISA
Assay type: biochemical
Settings: for inhibition at 10 µM: read-out: % Inhib./10 uM; for % Inhib./10 uM: single point assay
Procedure, shortened: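 Flag/GST-tagged human B-Raf (Sf9, ~20 ng/point) phosphorylates non-active GST-MEK1 (50 nM final) with ATP and MgCl2 in MOPS pH 7.2 buffer, 60 min at RT. Product is captured on anti-GST plates; MEK1 pSer217/221 is read by phospho-antibody plus europium conjugate (DELFIA).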

[1] = median, cpd concentrations from 10 μM to 30 nM in half log dilutions, read-out: Median IC50

T1 sequence (P15056 whole entry): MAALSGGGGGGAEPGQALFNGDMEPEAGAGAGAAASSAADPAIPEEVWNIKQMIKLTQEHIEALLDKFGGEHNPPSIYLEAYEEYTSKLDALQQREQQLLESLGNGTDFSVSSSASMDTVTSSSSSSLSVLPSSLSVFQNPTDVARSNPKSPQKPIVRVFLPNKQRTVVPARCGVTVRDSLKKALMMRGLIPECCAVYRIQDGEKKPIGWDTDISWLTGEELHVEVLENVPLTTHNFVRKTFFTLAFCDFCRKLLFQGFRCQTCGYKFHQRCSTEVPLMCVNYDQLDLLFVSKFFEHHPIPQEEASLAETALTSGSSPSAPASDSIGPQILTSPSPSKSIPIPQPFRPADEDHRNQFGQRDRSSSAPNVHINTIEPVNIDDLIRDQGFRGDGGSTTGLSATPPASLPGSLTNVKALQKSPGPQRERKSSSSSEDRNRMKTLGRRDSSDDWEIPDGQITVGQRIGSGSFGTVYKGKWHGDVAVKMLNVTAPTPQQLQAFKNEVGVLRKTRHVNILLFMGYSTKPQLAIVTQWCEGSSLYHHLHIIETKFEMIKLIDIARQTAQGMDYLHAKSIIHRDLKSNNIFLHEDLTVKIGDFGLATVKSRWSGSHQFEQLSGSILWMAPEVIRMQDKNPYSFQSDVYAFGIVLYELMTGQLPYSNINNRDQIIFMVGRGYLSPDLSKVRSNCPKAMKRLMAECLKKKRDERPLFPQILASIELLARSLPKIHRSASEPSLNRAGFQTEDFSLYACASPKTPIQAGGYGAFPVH

## CCOC(=O)c1cnn2c(-c3cccc(NC(=O)Nc4cc(OC)cc(C(F)(F)F)c4)c3)ccnc12 [Example 77, ethyl 7-{3-[({[3-methoxy-5-(trifluoromethyl)phenyl]amino}carbonyl)amino]phenyl}pyrazolo[1,5-a]pyrimidine-3-carboxylate]
[1]
  IC50: 990 nM
  inhibition at 10 µM: 72%

## O=Cc1cc(C=O)cc(-c2cnn3c(-c4cccc(NC(=O)c5cccc(C(F)(F)F)c5)c4)ccnc23)c1 [Example 310, N-{3-[3-(3,5-diformylphenyl)pyrazolo[1,5-a]pyrimidin-7-yl]phenyl}-3-(trifluoromethyl)benzamide]
[1]
  IC50: > 10000 nM
  inhibition at 10 µM: 37%

## O=C(Nc1cccc(-c2ccnc3c(-c4cccnc4)cnn23)c1)Nc1ccc(Cl)c(Cl)c1 [Example 175, N-(3,4-dichlorophenyl)-N′-[3-(3-pyridin-3-ylpyrazolo[1,5-a]pyrimidin-7-yl)phenyl]urea]
[1]
  IC50: 450 nM
  inhibition at 10 µM: 70%

## CCOC(=O)c1cnn2c(-c3cccc(NC(=O)Nc4ccc(OC)c(Cl)c4)c3)ccnc12 [Example 81, ethyl 7-[3-({[(3-chloro-4-methoxyphenyl)amino]carbonyl}amino)phenyl]pyrazolo[1,5-a]pyrimidine-3-carboxylate]
[1]
  IC50: 6150 nM
  inhibition at 10 µM: 50%

## CCOC(=O)c1cnn2c(-c3cccc(NC(=O)Nc4ccc(N5CCOCC5)c(Cl)c4)c3)ccnc12 [Example 84, ethyl 7-[3-({[(3-chloro-4-morpholin-4-ylphenyl)amino]carbonyl}amino)phenyl]pyrazolo[1,5-a]pyrimidine-3-carboxylate]
[1]
  IC50: > 10000 nM
  inhibition at 10 µM: 22%

## NC(=O)c1cccc(-c2cnn3c(-c4cccc(NC(=O)c5cccc(C(F)(F)F)c5)c4)ccnc23)c1 [Example 271, N-(3-{3-[3-(aminocarbonyl)phenyl]pyrazolo[1,5-a]pyrimidin-7-yl}phenyl)-3-(trifluoromethyl)benzamide]
  IC50: 57 nM
  inhibition at 10 µM: 93%

## O=C(Nc1cccc(-c2ccnc3c(-c4cccc(CO)c4)cnn23)c1)c1cccc(C(F)(F)F)c1 [Example 286, N-(3-{3-[3-(hydroxymethyl)phenyl]pyrazolo[1,5-a]pyrimidin-7-yl}phenyl)-3-(trifluoromethyl)benzamide]
  IC50: 146 nM
  inhibition at 10 µM: 77%

## O=C(Nc1cccc(-c2ccnc3c(C(=O)NCCCN4CCOCC4)cnn23)c1)c1cccc(C(F)(F)F)c1 [Example 53, N-(3-morpholin-4-ylpropyl)-7-(3-{[3-(trifluoromethyl)benzoyl]amino}phenyl)pyrazolo[1,5-a]pyrimidine-3-carboxamide]
[1]
  IC50: 5000 nM
  inhibition at 10 µM: 55%

## COCCOCC(=O)Nc1ccc(-c2cnn3c(-c4cccc(NC(=O)c5cccc(C(F)(F)F)c5)c4)ccnc23)cc1 [Example 235, N-{3-[3-(4-{[(2-methoxyethoxy)acetyl]amino}phenyl)pyrazolo[1,5-a]pyrimidin-7-yl]phenyl}-3-(trifluoromethyl)benzamide]
[1]
  IC50: 169 nM
  inhibition at 10 µM: 84%

## CCOCOCc1ccc(-c2cc3nccc(-c4cccc(NC(=O)c5cccc(C(F)(F)F)c5)c4)n3n2)cc1 [Example 140, N-[3-(2-{4-[(ethoxymethoxy)methyl]phenyl}pyrazolo[1,5-a]pyrimidin-7-yl)phenyl]-3-(trifluoromethyl)benzamide]
[1]
  IC50: > 10000 nM
  inhibition at 10 µM: 39%

## CCOC(=O)c1cnn2c(-c3cccc(NC(=O)Nc4ccc(F)c(C(F)(F)F)c4)c3)ccnc12 [Example 44, ethyl 7-{3-[({[4-fluoro-3-(trifluoromethyl)phenyl]amino}carbonyl)amino]phenyl}pyrazolo[1,5-a]pyrimidine-3-carboxylate]
[1]
  IC50: 270 nM
  inhibition at 10 µM: 90%

## ethyl 7-{3-[({[(ethoxycarbonyl)phenyl]amino}carbonyl)amino]phenyl}pyrazolo[1,5-a]pyrimidine-3-carboxylate [Example 15]
[1]
  IC50: > 10000 nM
  % Inhib./10 uM: 0%

## CCOC(=O)c1cnn2c(-c3cccc(NC(=O)Cc4c(F)ccc(F)c4F)c3)ccnc12 [Example 102, ethyl 7-(3-{[(2,3,6-trifluorophenyl)acetyl]amino}phenyl)pyrazolo[1,5-a]pyrimidine-3-carboxylate]
[1]
  IC50: > 10000 nM
  inhibition at 10 µM: 0%

## CNc1ccc(-c2cnn3c(-c4cccc(NC(=O)c5cccc(C(F)(F)F)c5)c4)ccnc23)cn1 [Example 284, N-(3-{3-[6-(methylamino)pyridin-3-yl]pyrazolo[1,5-a]pyrimidin-7-yl}phenyl)-3-(trifluoromethyl)benzamide]
[1]
  IC50: 78 nM
  inhibition at 10 µM: 92%

## O=C(Nc1cccc(-c2ccnc3cc(-c4ccnc(NCCCN5CCCC5=O)c4)nn23)c1)c1cccc(C(F)(F)F)c1 [Example 261, N-{3-[2-(2-{[3-(2-oxopyrrolidin-1-yl)propyl]amino}pyridin-4-yl)pyrazolo[1,5-a]pyrimidin-7-yl]phenyl}-3-(trifluoromethyl)benzamide]
  IC50: 113 nM
  inhibition at 10 µM: 94%

## CN(C)CCOC(=O)c1cnn2c(-c3cccc(NC(=O)c4cccc(C(F)(F)F)c4)c3)ccnc12 [Example 127, 2-(dimethylamino)ethyl 7-(3-{[3-(trifluoromethyl)benzoyl]amino}phenyl)pyrazolo[1,5-a]pyrimidine-3-carboxylate]
[1]
  IC50: 7070 nM
  inhibition at 10 µM: 54%

## O=C(Nc1cccc(-c2ccnc3c(-c4nn[nH]n4)cnn23)c1)c1cccc(C(F)(F)F)c1 [Example 60, N-{3-[3-(2H-tetrazol-5-yl)pyrazolo[1,5-a]pyrimidin-7-yl]phenyl}-3-(trifluoromethyl)benzamide]
[1]
  IC50: > 10000 nM
  inhibition at 10 µM: 1%

## O=C(Cc1nnn[nH]1)Nc1ccc(-c2cnn3c(-c4cccc(NC(=O)c5cccc(C(F)(F)F)c5)c4)ccnc23)cc1 [Example 233, N-[3-(3-{4-[(1H-tetrazol-5-ylacetyl)amino]phenyl}pyrazolo[1,5-a]pyrimidin-7-yl)phenyl]-3-(trifluoromethyl)benzamide]
[1]
  IC50: 1000 nM
  inhibition at 10 µM: 96%

## O=C(Nc1cccc(-c2ccnc3cc(-c4ccnc(NCCN5CCC(O)CC5)c4)nn23)c1)c1cccc(C(F)(F)F)c1 [Example 263, N-{3-[2-(2-{[2-(4-hydroxypiperidin-1-yl)ethyl]amino}pyridin-4-yl)pyrazolo[1,5-a]pyrimidin-7-yl]phenyl}-3-(trifluoromethyl)benzamide]
  IC50: 65.8 nM
  % Inhib./10 uM: 98%

## CC(C)(C)CC(=O)Nc1cccc(-c2ccnc3cc(-c4ccncc4)nn23)c1 [Example 240, 3,3-dimethyl-N-[3-(2-pyridin-4-ylpyrazolo[1,5-a]pyrimidin-7-yl)phenyl]butanamide]
[1]
  IC50: > 10000 nM
  inhibition at 10 µM: 10%

## CCOC(=O)c1cnn2c(-c3cccc(NC(=O)Cc4cccc(Br)c4)c3)ccnc12 [Example 92, ethyl 7-(3-{[(3-bromophenyl)acetyl]amino}phenyl)pyrazolo[1,5-a]pyrimidine-3-carboxylate]
[1]
  IC50: > 10000 nM
  inhibition at 10 µM: 97%

## Cc1ccc(C(=O)Nc2cccc(-c3ccnc4cc(-c5ccccc5)nn34)c2)cc1C(F)(F)F [Example 119, 4-methyl-N-[3-(2-phenylpyrazolo[1,5-a]pyrimidin-7-yl)phenyl]-3-(trifluoromethyl)benzamide]
[1]
  IC50: > 10000 nM
  inhibition at 10 µM: 29%
